Assay results: patent publication US20220096503A1, “COMBINATION PHARMACEUTICAL COMPOSITIONS AND METHODS THEREOF” (University of Washington, priority 2019, published 2022)
Like-named read-outs stand apart in the source and are kept apart here.

What was measured:
[1] = Non-human Primates, SC; cited from earlier work
[2] = Human, IV; cited from earlier work
[3] = Conventional dosage form LPV/RTV, oral administration, non-human primates (Example 4); format: in vivo; conditions: non-human primates vs humans
Description: AUC (area under the curve, or total drug exposure) of the active drug lopinavir was dose normalized across species and route of administration by dividing the total exposure by the dose administered (μg*hr*kg/(mL*mg)). Dashes represent unreported data. Apparent half-life is reported in hours.

Row | SMILES | AUC (dose normalized) [1] [µg·kg·h/mL/mg] | T1/2, app [1] [h] | AUC (dose normalized) [2] [µg·kg·h/mL/mg] | T1/2, app [2] [h] | total AUC of lopinavir (PO) in non-human primates, fold lower than humans [3] [fold]
1 | C[C@H](Cn1cnc2c(N)ncnc21)OCP(=O)(O)O [TFV, tenofovir] | 2.1 | 8 | 5.6 | 6.6 | 
2 | Cc1cccc(C)c1OCC(=O)N[C@@H](Cc1ccccc1)[C@@H](O)C[C@H](Cc1ccccc1)NC(=O)[C@H](C(C)C)N1CCCNC1=O [lopinavir] |  |  |  |  | 10
